Data from ChEMBL document CHEMBL6121062, “Discovery, Optimization, and Preclinical Pharmacology of EP652, a METTL3 Inhibitor with Efficacy in Liquid and Solid Tumor Models” (J Med Chem, 2025).
Activity calls are given as the source filed them. The calls are words filed in the database; no cut-off is given here.

Assays:
SK-OV-3 [1] = assay: Antitumor activity against human SK-OV-3 cells xenografted in NSG mouse assessed as prolongation of animal survival at 30 mg/kg, ip qd treated for 83 days; format: functional, organism-based; settings: time 83.0 day
[2] = target: T1, METTL3/METTL14 (Homo sapiens) (UniProt Q86U44+Q9HCE5); assay: (§1) Inhibition of METTL3/METTL14-mediated m6A mRNA expression in human Calu-6 cells incubated for 24 hrs by LC-MS/MS analysis; format: cell-based
METTL3/METTL14 [3] = target: T2, METTL3/METTL14 (Homo sapiens, UniProt Q86U44); assay: as §1; format: cell-based
METTL3/METTL14 [4] = target: T2, METTL3/METTL14; assay: Displacement of [3H]-SAM from METTL3/METTL14 (unknown origin) using 5'biotinylated-UACACUCGAUCUGGACUAAAGGUGCUC-3' RNA as substrate preincubated for 10 mins followed by substrate/[3H]-SAM addition measured after 90 mins by SPA; format: protein-complex assay
Kasumi 1 [5] = assay: Antiproliferative activity against human Kasumi 1 cells assessed as inhibition of cell viability incubated for 72 hrs by ATPlite assay; format: functional, cell-based; settings: Kasumi 1, 72 h
[6] = Unbound fraction in Sprague-Dawley rat plasma at 1 mg/kg/day, iv measured for 24 hrs by LC-MS/MS analysis; format: ADME, organism-based; settings: in vivo
[7] = Half life in human liver microsomes; format: ADME, Microsome
[8] = Stability in rat hepatocytes assessed as half life; format: ADME, cell-based, Hepatocyte
[9] = Stability in human hepatocytes assessed as half life; format: ADME, cell-based, Hepatocyte
Cytochrome P450 1A2 = target: T3, Cytochrome P450 1A2 (Homo sapiens, UniProt P05177); assay: Inhibition of CYP1A2 (unknown origin); format: ADME
T3 sequence (P05177 whole entry): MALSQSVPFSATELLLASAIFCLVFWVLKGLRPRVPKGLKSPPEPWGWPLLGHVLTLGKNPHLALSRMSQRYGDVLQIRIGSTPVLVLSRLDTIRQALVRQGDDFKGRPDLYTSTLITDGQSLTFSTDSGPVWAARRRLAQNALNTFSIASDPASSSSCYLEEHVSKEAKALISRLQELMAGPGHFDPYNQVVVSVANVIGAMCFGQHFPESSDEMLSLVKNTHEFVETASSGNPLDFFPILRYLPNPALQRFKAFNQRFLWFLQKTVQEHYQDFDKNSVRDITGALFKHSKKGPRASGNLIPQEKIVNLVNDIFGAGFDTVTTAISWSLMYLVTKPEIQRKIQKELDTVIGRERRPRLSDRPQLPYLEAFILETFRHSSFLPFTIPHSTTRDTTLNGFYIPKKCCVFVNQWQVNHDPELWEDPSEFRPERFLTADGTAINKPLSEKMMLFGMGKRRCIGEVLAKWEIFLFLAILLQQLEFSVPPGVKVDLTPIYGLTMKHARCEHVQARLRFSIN

Cytochrome P450 2C19 = Cytochrome P450 2C19 (Homo sapiens, UniProt P33261); assay: Inhibition of CYP2C19 (unknown origin); format: ADME
Cytochrome P450 2C9 = Cytochrome P450 2C9 (Homo sapiens, UniProt P11712); assay: Inhibition of CYP2C9 (unknown origin); format: ADME
Cytochrome P450 2D6 = Cytochrome P450 2D6 (Homo sapiens, UniProt P10635); assay: Inhibition of CYP2D6 (unknown origin); format: ADME
[10] = target: Voltage-gated inwardly rectifying potassium channel KCNH2 (Homo sapiens, UniProt Q12809); assay: Inhibition of hERG transfected in HEK293 cells at 20 mV; format: toxicity, cell-based
Caov-3 cell line = assay: Antiproliferative activity against human Caov-3 cells assessed as inhibition of cell viability incubated for 72 hrs by ATPlite assay; format: functional, cell-based; settings: Caov-3, 72 h
Calu-6 = assay: Antiproliferative activity against human Calu-6 cells assessed as inhibition of cell viability incubated for 72 hrs by ATPlite assay; format: functional, cell-based; settings: Calu-6, 72 h
SK-OV-3 [11] = assay: Antiproliferative activity against human SK-OV-3 cells assessed as inhibition of cell viability incubated for 72 hrs by ATPlite assay; format: functional, cell-based; settings: SK-OV-3, 72 h
[12] = target: T1, METTL3/METTL14 (Homo sapiens); assay: (§2) Inhibition of METTL3/METTL14-mediated m6A mRNA expression in human MV4-11 cells incubated for 24 hrs by LC-MS/MS analysis; format: cell-based
METTL3/METTL14 [13] = target: T2, METTL3/METTL14; assay: as §2; format: cell-based
[14] = target: T1, METTL3/METTL14 (Homo sapiens); assay: (§3) Inhibition of METTL3/METTL14-mediated m6A mRNA expression in human A549 cells incubated for 24 hrs by LC-MS/MS analysis; format: cell-based
METTL3/METTL14 [15] = target: T2, METTL3/METTL14; assay: as §3; format: cell-based
[16] = target: T1, METTL3/METTL14 (Homo sapiens); assay: (§4) Inhibition of METTL3/METTL14-mediated m6A mRNA expression in human FaDu cells incubated for 24 hrs by LC-MS/MS analysis; format: cell-based
METTL3/METTL14 [17] = target: T2, METTL3/METTL14; assay: as §4; format: cell-based
[18] = Unbound AUC in mouse at 30 mg/kg, ip; format: ADME, organism-based; settings: in vivo
Kasumi 1 [19] = assay: Induction of apoptosis in human Kasumi 1 cells incubated for 48 hrs by Caspase-Glo 3/7 assay; format: functional, cell-based
[20] = In vivo inhibition of METTL3/METTL14-mediated m6A mRNA expression in PBMC of rat at 0.3 mg/kg, ip relative to control; format: functional
MV4-11 [21] = assay: Antitumor activity against human MV4-11 cells expressing Luc-mCh-Puro xenografted in NSG mouse assessed as inhibition of cancer progression at 30 mg/kg, ip qd treated for 31 days measured upto 40 days by bioluminescence imaging analysis; format: functional, organism-based; settings: time <= 40.0 day
MV4-11 [22] = assay: Antitumor activity against human MV4-11 cells expressing Luc-mCh-Puro xenografted in NSG mouse assessed as decrease in hCD45+ cells in spleen at 30 mg/kg, ip qd measured after 28 days by flow cytometry; format: functional, organism-based; settings: time 28.0 day
FaDu = assay: Antitumor activity against human FaDu cells xenografted in NSG mouse assessed as prolongation of animal survival at 30 mg/kg, ip qd treated for 20 days; format: functional, organism-based; settings: time 20.0 day
A549 [23] = assay: Antitumor activity against human A549 cells xenografted in NSG mouse assessed as prolongation of animal survival at 30 mg/kg, ip qd treated for 50 days; format: functional, organism-based; settings: time 50.0 day
A549 [24] = assay: Antitumor activity against human A549 cells xenografted in NSG mouse assessed as tumor growth inhibition at 30 mg/kg, ip qd treated for 50 days by bioluminescence imaging analysis; format: functional, organism-based; settings: time 50.0 day
SK-OV-3 [25] = assay: Antitumor activity against human SK-OV-3 cells xenografted in NSG mouse assessed as tumor growth inhibition at 30 mg/kg, ip qd treated for 52 days by bioluminescence imaging analysis; format: functional, organism-based; settings: time 52.0 day
[26] = Toxicity in NSG mouse xenografted with human FaDu cells assessed as body weight gain at 30 mg/kg, ip qd treated for 20 days; format: organism-based; settings: in vivo, 480 h, time 20 day
[27] = Toxicity in NSG mouse xenografted with human SK-OV-3 cells assessed as body weight gain at 30 mg/kg, ip qd treated for 83 days; format: organism-based; settings: in vivo, 1992 h, time 83 day
[28] = Toxicity in NSG mouse xenografted with human FaDu cells assessed as macroscopic adverse events at 30 mg/kg, ip qd treated for 20 days; format: organism-based; settings: in vivo, 480 h, time 20 day
[29] = Toxicity in NSG mouse xenografted with human SK-OV-3 cells assessed as macroscopic adverse events at 30 mg/kg, ip qd treated for 83 days; format: organism-based; settings: in vivo, 1992 h, time 83 day

T2 sequence (Q86U44 whole entry): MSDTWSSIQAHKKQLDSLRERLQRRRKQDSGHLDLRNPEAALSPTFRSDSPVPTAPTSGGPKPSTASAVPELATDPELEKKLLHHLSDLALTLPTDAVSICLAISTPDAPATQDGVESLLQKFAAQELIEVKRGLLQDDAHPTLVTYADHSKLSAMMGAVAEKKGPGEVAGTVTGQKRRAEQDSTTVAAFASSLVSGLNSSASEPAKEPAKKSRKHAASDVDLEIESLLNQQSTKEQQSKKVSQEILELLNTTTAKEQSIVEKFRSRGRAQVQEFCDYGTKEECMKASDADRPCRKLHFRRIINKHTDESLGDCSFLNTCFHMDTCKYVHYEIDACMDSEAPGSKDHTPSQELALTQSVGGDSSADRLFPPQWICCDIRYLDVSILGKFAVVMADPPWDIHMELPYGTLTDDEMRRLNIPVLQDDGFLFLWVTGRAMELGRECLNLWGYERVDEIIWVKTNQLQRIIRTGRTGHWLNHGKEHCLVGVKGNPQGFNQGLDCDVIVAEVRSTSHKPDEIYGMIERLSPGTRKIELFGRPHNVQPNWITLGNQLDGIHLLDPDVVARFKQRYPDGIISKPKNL
T2 sequence (Q9HCE5 whole entry, further chain): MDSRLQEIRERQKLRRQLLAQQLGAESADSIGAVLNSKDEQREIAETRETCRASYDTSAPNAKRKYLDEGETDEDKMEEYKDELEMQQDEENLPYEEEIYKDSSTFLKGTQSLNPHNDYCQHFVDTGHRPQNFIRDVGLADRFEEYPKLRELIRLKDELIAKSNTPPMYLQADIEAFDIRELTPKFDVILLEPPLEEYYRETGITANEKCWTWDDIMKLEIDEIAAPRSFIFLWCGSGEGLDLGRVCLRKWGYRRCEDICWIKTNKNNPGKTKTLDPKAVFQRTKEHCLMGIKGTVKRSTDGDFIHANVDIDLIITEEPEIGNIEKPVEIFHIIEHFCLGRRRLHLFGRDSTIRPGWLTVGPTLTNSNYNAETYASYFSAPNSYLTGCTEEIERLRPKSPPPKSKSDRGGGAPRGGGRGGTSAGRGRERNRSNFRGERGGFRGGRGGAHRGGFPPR
Sequence of Cytochrome P450 2C19 (P33261 whole entry): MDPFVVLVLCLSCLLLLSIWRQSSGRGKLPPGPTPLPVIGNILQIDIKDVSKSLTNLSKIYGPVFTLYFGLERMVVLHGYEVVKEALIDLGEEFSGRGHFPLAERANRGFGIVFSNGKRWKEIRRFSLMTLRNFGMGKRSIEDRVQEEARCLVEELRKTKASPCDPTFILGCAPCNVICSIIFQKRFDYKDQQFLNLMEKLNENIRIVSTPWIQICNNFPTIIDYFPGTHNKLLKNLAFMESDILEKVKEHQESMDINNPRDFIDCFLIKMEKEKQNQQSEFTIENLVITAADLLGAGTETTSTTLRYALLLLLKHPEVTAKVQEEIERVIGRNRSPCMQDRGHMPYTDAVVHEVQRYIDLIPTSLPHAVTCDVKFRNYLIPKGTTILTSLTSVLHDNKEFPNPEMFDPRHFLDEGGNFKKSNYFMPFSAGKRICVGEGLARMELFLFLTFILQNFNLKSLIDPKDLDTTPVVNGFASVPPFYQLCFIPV
Sequence of Voltage-gated inwardly rectifying potassium channel KCNH2 (Q12809 whole entry): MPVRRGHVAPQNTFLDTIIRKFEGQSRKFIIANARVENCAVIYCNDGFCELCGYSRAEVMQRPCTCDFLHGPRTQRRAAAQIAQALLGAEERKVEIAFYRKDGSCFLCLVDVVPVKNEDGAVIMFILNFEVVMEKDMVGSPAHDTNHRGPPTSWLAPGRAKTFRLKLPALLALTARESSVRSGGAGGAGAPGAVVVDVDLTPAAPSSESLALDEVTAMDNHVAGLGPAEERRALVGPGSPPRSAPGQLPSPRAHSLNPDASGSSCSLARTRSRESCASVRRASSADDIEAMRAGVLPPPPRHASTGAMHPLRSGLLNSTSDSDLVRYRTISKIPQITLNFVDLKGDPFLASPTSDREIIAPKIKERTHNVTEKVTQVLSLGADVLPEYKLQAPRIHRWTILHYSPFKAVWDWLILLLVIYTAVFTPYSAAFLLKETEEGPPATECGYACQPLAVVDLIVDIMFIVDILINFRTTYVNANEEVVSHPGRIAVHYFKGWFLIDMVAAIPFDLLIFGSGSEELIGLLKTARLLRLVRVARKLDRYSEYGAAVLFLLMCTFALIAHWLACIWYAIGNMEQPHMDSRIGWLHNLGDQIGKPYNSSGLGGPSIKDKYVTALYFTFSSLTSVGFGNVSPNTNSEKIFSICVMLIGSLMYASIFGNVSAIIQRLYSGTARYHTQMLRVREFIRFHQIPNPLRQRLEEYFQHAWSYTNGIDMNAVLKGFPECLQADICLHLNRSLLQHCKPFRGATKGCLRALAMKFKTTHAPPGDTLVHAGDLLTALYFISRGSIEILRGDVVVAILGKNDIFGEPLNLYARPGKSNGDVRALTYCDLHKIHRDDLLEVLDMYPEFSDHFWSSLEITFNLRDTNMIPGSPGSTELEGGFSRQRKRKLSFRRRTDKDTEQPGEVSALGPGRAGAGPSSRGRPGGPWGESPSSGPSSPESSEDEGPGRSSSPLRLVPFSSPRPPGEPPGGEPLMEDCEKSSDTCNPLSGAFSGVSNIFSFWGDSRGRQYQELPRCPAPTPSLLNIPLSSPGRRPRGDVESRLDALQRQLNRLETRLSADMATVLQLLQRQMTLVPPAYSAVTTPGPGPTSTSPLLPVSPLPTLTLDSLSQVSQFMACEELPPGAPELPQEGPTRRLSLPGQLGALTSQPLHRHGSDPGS
Sequence of Cytochrome P450 2C9 (P11712 whole entry): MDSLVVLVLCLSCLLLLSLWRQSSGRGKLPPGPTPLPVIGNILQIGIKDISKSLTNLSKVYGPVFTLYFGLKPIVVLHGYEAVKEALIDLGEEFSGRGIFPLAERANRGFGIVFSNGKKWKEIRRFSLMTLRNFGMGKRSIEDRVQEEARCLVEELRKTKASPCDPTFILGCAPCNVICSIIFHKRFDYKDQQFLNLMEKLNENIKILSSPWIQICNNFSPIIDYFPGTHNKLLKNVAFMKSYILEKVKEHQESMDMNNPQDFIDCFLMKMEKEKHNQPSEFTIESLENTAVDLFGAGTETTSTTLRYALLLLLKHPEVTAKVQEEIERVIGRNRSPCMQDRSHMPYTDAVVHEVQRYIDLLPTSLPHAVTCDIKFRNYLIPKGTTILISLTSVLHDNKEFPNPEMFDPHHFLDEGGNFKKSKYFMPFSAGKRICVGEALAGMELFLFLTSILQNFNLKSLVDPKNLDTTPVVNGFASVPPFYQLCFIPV
Sequence of Cytochrome P450 2D6 (P10635 whole entry): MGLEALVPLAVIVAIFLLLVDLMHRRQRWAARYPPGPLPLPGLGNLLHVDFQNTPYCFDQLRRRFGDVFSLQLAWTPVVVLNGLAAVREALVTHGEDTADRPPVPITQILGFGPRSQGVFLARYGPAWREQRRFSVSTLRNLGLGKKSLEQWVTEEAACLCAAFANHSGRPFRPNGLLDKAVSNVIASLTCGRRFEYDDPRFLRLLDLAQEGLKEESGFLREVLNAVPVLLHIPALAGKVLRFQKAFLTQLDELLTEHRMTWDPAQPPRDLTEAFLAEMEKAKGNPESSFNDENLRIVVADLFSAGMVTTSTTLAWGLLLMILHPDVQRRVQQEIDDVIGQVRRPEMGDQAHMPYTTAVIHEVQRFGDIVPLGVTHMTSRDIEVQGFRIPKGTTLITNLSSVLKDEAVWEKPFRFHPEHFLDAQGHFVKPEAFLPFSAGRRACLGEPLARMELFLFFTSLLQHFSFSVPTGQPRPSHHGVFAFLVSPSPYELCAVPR

C[C@@H](n1cc(-c2cncc(N(C)C)c2)nn1)n1ccc(N2CCC[C@@H](NCC3CC3)C2)cc1=O
Activity (SK-OV-3 [1]): Active | inhibition [2]: Dose-dependent-effect | IC50 (METTL3/METTL14 [3]): 0.009 µM | IC50 (METTL3/METTL14 [4]): 0.002 µM | IC50 (Kasumi 1 [5]): 0.037 µM | Fu [6]: 23% | half-life [7]: 2.34 h | half-life [8]: > 4 h | half-life [9]: > 4 h | IC50 (Cytochrome P450 1A2): > 100 µM | IC50 (Cytochrome P450 2C19): > 100 µM | IC50 (Cytochrome P450 2C9): > 100 µM | IC50 (Cytochrome P450 2D6): > 100 µM | IC50 [10]: > 30 µM | IC50 (Caov-3 cell line): 0.02 µM | IC50 (Calu-6): 0.018 µM | IC50 (SK-OV-3 [11]): 0.011 µM | inhibition [12]: Dose-dependent-effect | IC50 (METTL3/METTL14 [13]): 0.005 µM | inhibition [14]: Dose-dependent-effect | IC50 (METTL3/METTL14 [15]): 0.007 µM | inhibition [16]: Dose-dependent-effect | IC50 (METTL3/METTL14 [17]): 0.006 µM | fAUC [18]: 175.8 µM·min | Activity (Kasumi 1 [19]): Active | Emax at 0.3 mg/kg [20]: ~75% | inhibition (MV4-11 [21]): Active | Activity (MV4-11 [22]): Active | Activity (FaDu): Active | Activity (A549 [23]): Active | inhibition (A549 [24]): Active | inhibition (SK-OV-3 [25]): Active | Activity [26]: Non-toxic | Activity [27]: Non-toxic | Activity [28]: Non-toxic | Activity [29]: Non-toxic
